Data reported in publication PMC12354831 (Cell Death Discovery, 2025).

Key:
[1] = system: GLUT3 mutants; test: TMZ/CAPE uptake by U251-MG cells stably expressing GLUT3 mutants vs WT GLUT3 (LC-MS/MS); format: in vitro ADME, human; details: U251-MG cells expressing GLUT3 mutants with reduced affinity vs WT GLUT3
Protocol: (§1) A total of 6 × 10^6 cells were seeded into each well of a 6 cm Petri dish and cultured at 37 °C in a humidified atmosphere containing 5% CO2 for 8 h. The cells were then washed twice with PBS (137 mM NaCl, 2.7 mM KCl, 10 mM Na2HPO4, 1.8 mM KH2PO4, pH 7.4) and incubated in transport buffer (140 mM NaCl, 5 mM KCl, 2 mM MgCl2, 2 mM CaCl2, 30 mM Tris-HCl, pH 7.4) for 15 min at 37 °C. […] Cell supernatants were collected and stored at 4 °C for subsequent extraction. The harvested cells were washed three times with PBS and extracted with 500 µL of 80% methanol for 30 min at −80 °C. The cell lysate was then centrifuged at 14,000 × g for 5 min at 4 °C, followed by 2 min of sonication. The supernatant was transferred to a new centrifuge tube. For LC-MS/MS analysis, the cell supernatants and cell lysates were diluted at a specific ratio. A total of 100 µL of each sample was mixed with 100 µL of acetonitrile (or standard reagent) and 300 µL of internal standard solution (^2H3-TMZ 100 ng/mL and ^2H11-CAPE 20 ng/mL dissolved in acetonitrile). […] Quality control (QC) samples were prepared and analyzed alongside the experimental samples to monitor the stability and repeatability of the instrument. QC samples were inserted regularly and analyzed every 6–12 samples. Each experiment was repeated 5–6 times. […]

[2] = system: U251-MG cell-derived xenograft; test: TMZ and CAPE levels in nude mouse xenograft tumors by LC-MS/MS; format: in vivo, nude mice (BALB/c-nu); details: nude mice, TMZ 40 mg/kg or CAPE 20 mg/kg every 3 days; for drug level in GLUT3-overexpressing tumors relative to controls: fasting groups (24 h fast before each dose); for drug concentration in GLUT3 overexpressing tumors relative to controls: regular diet
Protocol: TMZ and CAPE levels in tumors from nude mice were measured using LC-MS/MS. Tumor tissues were excised from the mice and homogenized. The homogenized samples were then centrifuged at maximum speed (~14,000 × g) at 4 °C for 10 min. The supernatant was collected and transferred to a new centrifuge tube.
For LC-MS/MS analysis, the supernatants were diluted to an appropriate concentration. A total of 100 µL of each sample was mixed with 100 µL of acetonitrile (or standard reagent) and 300 µL of internal standard solution (^2H3-TMZ 100 ng/mL and ^2H11-CAPE 20 ng/mL dissolved in acetonitrile). […] To ensure the stability and repeatability of the instrument analysis, QC samples were prepared and analyzed alongside the experimental samples. QC samples were inserted regularly and analyzed every 6–12 samples. Each experiment was repeated 6 times.
LC-MS/MS analyses were performed using an HPLC system (Shimadzu, LC-20A) coupled to a SCIEX Triple Quad™ 7500 mass spectrometer. The samples were separated on a Syncronis HILIC column (2.1 × 100 mm, 1.7 µm; Thermo Scientific). The mobile phases consisted of: Mobile phase A (0.1% formic acid and 2.5 mM ammonium acetate in water) and Mobile phase B (0.1% formic acid and 2.5 mM ammonium acetate in acetonitrile). Gradient elution was employed, with the flow rates and gradient conditions detailed in Table S4.
The mass spectrometry conditions were as follows: Ion source: electrospray ionization (ESI); Detection mode: positive ion mode; Scanning method: multiple reaction monitoring (MRM); Spray voltage (IS): 5500 V; Ion source temperature (TEM): 555 °C; Gas curtain pressure (CUR): 25 psi; Collision activation dissociation (CAD): MEDIUM; Nebulizer gas pressure (GS1): 55 psi; Auxiliary gas pressure (GS2): 55 psi.
All animal studies were approved and supervised by the Ethics Committee for Animal Use and Care at Peking University. Nude mice (BALB/c-nu) were purchased and maintained as previously described. For the establishment of xenograft tumor models, 1 × 10^6 U251-MG cells (either negative vector control or overexpressing GLUT3) were injected into the bilateral axillary fossae of 4-week-old nude mice. After 7 days, when palpable tumors had formed, the mice were randomly divided into six experimental groups (n = 7 per group), and treatment was initiated immediately.

[3] = molecular target: T1, GLUT3 N413A (Homo sapiens, UniProt P11169, N413A); test: TMZ uptake by U251-MG cells stably expressing GLUT3 N413A vs WT GLUT3 (LC-MS/MS); format: in vitro ADME
T1 construct: expressed in transfected cells; host or cells: U87 and U343 per methods
T1 sequence (P11169 1-496 N413A): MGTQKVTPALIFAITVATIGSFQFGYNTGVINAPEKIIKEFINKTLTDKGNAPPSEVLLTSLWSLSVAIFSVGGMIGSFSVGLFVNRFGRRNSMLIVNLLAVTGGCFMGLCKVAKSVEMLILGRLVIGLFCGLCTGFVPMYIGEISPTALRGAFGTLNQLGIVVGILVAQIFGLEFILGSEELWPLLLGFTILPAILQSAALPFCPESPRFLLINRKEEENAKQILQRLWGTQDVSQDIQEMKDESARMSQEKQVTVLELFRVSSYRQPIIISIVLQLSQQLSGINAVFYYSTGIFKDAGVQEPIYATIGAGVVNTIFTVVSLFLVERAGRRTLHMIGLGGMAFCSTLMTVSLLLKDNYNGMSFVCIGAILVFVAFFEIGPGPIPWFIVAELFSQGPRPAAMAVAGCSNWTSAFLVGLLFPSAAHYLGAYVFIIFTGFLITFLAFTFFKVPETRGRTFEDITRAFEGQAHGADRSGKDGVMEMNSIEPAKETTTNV
Protocol: as §1

CCCCCOC(=O)Nc1nc(=O)n([C@@H]2O[C@H](C)[C@@H](O)[C@H]2O)cc1F [CAPE, capecitabine]
reduction in drug uptake [1]: 75–95%
drug level in GLUT3-overexpressing tumors relative to controls [2]: 3.54 fold
drug concentration in GLUT3 overexpressing tumors relative to controls [2]: 1.52 fold

Cn1nnc2c(C(N)=O)ncn2c1=O [TMZ]
reduction in drug uptake [1]: 60–70%
reduction in drug uptake [3]: 40–50%
drug level in GLUT3-overexpressing tumors relative to controls [2]: 1.34 fold
drug concentration in GLUT3 overexpressing tumors relative to controls [2]: ~ 1.95 fold
